Laboratory results from article PMC3508294 (Journal of medicinal chemistry, 2012).
One block for each molecule: values may come before it.

Experiments:
[1] = target: T1, CARM1/PRMT4 (Mus musculus, UniProt Q9WVG6); test: CARM1 in vitro methylation assay, histone H3 as substrate; format: biochemical; settings: 50 µM
T1 sequence (Q9WVG6 1-608): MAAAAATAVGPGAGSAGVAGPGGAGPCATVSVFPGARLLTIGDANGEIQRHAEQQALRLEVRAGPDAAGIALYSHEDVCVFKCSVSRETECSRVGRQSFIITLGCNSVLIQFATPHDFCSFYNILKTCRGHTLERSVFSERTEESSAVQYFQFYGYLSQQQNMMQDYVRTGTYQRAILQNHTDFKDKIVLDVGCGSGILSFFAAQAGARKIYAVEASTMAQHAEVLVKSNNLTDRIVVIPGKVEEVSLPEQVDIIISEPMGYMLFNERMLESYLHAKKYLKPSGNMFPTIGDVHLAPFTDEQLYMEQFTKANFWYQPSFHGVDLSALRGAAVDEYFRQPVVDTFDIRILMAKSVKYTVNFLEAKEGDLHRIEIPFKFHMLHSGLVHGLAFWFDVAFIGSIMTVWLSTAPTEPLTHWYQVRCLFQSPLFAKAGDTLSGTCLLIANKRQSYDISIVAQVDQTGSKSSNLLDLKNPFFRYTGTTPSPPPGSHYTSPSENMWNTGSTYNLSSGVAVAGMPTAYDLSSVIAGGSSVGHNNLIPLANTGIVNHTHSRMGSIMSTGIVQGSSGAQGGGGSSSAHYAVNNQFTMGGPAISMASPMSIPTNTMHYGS

[2] = target: T1, CARM1/PRMT4; test: CARM1 in vitro methylation assay, PABP1 as substrate; format: biochemical; settings: 3, 6, 12, 25, 50 and 100 µM
[3] = system: calf thymus histone H3; test: SPR binding to immobilized histone H3; settings: compounds injected at 50–10000 nM
[4] = target: PABP1(437–488) (Homo sapiens, UniProt P11940); test: SPR binding to immobilized PABP1; settings: compounds injected at 50–10000 nM
[5] = target: T2, CARM1 (Mus musculus, UniProt Q9WVG6); test: SPR binding to immobilized full length GST-tagged CARM1; settings: for Effect on affinity of substrate (H3 or PABP1) for CARM1/SAH complex: 4 µM compound, 200 µM SAH; for Interaction with immobilized CARM1 (in words): 50–10000 nM, in the presence and in absence of SAH
T2 sequence (Q9WVG6 1-608): T1 sequence (Q9WVG6 1-608)

[6] = target: human recombinant PRMT1 (hPRMT1) (Homo sapiens, UniProt Q99873); test: PRMT1 in vitro inhibition assay, Npl3 as substrate; settings: fixed doses of 10 µM and 50 µM
Sequence of human recombinant PRMT1 (hPRMT1) (Q99873 whole entry): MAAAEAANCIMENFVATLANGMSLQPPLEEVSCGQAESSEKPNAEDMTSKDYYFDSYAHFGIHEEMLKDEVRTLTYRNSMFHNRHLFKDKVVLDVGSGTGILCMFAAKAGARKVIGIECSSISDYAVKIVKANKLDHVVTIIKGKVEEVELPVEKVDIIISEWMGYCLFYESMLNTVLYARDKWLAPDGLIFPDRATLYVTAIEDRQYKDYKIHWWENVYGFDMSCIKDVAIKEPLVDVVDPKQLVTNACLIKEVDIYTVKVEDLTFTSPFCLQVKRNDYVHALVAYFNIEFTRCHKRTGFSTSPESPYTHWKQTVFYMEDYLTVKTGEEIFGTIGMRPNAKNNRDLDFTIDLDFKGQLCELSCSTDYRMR

[7] = system: CARM1 (fPABP1 methylation) in HEK293 cells; test: Cellular methylation assay, Tet-inducible fPABP1 in HEK293 cells; format: cell-based, human; settings: HEK293, Tet-induced fPABP1; 50 µM compound; 24 h; anti-methyl-PABP1 immunoblot
[8] = target: T3, full length GST-tagged CARM1 (UniProt Q9WVG6 1-608); test: SPR
T3 sequence (looked up): T1 sequence (Q9WVG6 1-608)

Molecule: CCOC(=O)c1cc2cc(NC(=O)CNC(=O)Nc3ccc([N+](=O)[O-])cc3)ccc2[nH]1 [1k, ethyl 5-(2-(3-(4-nitrophenyl)ureido)acetamido)-1H-indole-2-carboxylate]
- Effect on CARM1-catalyzed H3 methylation (in words) [1]: marked activation
- Effect on CARM1 enzyme activity, dose dependence [2]: marked and dose-dependent increase
- Interaction with immobilized histone H3 (in words) [3]: no interaction
- Interaction with immobilized PABP1(437–488) (in words) [4]: no interaction
- Effect on affinity of substrate (H3 or PABP1) for CARM1/SAH complex [5]: affects the affinity
- Interaction with immobilized CARM1 (in words) [5]: no interaction
- Inhibition of PRMT1 [6]: scarcely active

Molecule: CCOC(=O)c1cc2cc(NC(=O)CNC(=O)Nc3ccc(C)cc3)ccc2[nH]1 [3c, ethyl 5-(2-(3-(p-tolyl)ureido)acetamido)-1H-indole-2-carboxylate]
- Interaction with immobilized histone H3 (in words) [3]: no interaction
- Interaction with immobilized PABP1(437–488) (in words) [4]: no interaction
- Effect on affinity of substrate (H3 or PABP1) for CARM1/SAH complex [5]: significantly affect the affinity
- Interaction with immobilized CARM1 (in words) [5]: no interaction
- Methylation of fPABP1 in cells [7]: strongly increase the methylation

Molecule: CCOC(=O)c1cc2cc(NC(=O)CNC(=O)Nc3ccc(C#N)cc3)ccc2[nH]1 [3g, ethyl 5-(2-(3-(4-cyanophenyl)ureido)acetamido)-1H-indole-2-carboxylate]
- Interaction with immobilized histone H3 (in words) [3]: no interaction
- Interaction with immobilized PABP1(437–488) (in words) [4]: no interaction
- Effect on affinity of substrate (H3 or PABP1) for CARM1/SAH complex [5]: affects the affinity
- Interaction with immobilized CARM1 (in words) [5]: no interaction
- Methylation of fPABP1 in cells [7]: strongly increase the methylation

Molecule: O=C(Nc1ccc2c(O)cc(S(=O)(=O)O)cc2c1)Nc1ccc2c(O)cc(S(=O)(=O)O)cc2c1 [AMI-1, reference compound]
- Interaction with immobilized PABP1(437–488) (in words) [4]: barely perceptible

Now from value to molecule, other results behind:

- Interaction with immobilized PABP1(437–488) (in words) [4]: no interaction
- Effect on affinity of substrate (H3 or PABP1) for CARM1/SAH complex [5]: significantly affect the affinity
- Interaction with immobilized CARM1 (in words) [5]: no interaction
Molecule: COC(=O)c1c[nH]c2ccc(NC(=O)CNC(=O)Nc3ccc(OC)cc3)cc12 [4e, methyl 5-(2-(3-(4-methoxyphenyl)ureido)acetamido)-1H-indole-3-carboxylate]
- Interaction with immobilized histone H3 (in words) [3]: no interaction

- Interaction with immobilized PABP1(437–488) (in words) [4]: barely perceptible
Molecule: O=c1oc2c(O)c(O)cc3c(=O)oc4c(O)c(O)cc1c4c23 [ellagic acid, reference compound]

- Kd [8]: 158 nM
B1: PABP1(437–488) (domain or fragment, human, UniProt P11940 437-488, looked up)
chain: WTAQGARPHPFQNMPGAIRPAAPRPPFSTMRPASSQVPRVMSTQRVANTSTQ
